16 compounds from PubChem BioAssay (NCI) can be followed below.

Molecules are shown by their SMILES. Where “and” joins values, the source holds several entries; their conditions need not be identical. Identical values can stand only once.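 Tested at 5 concentrations; 48 h exposure; 96-well plates; endpoints linearly interpolated, else capped at highest concentration. GI50 = concentration required for 50% inhibition of growth. TGI denotes the concentration required for complete inhibition of growth.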 A value given as a limit tells only on which side of the number the result lay.

Assay in all cases: NCI tumour cell line growth inhibition, 48 h
In experiment [1] the test system is RXF 393 renal.
Experiment [2] concerns OVCAR-8 ovarian.
In experiment [3] the test system is IGROV1 ovarian.
Experiment [4] relates to NCI-H226 lung.
Experiment [5] concerns HT29 colon.
The subject of experiment [6] is HL-60(TB) leukemia.
For experiment [7], the system named is K-562 leukemia.
Experiment [8] deals with UACC-62 melanoma.
Experiment [9] concerns TK-10 renal.
Experiment [10] relates to RPMI-8226 leukemia.

Consider `CCN(CC)CCCC(C)N/C(c1cccc(OC)c1)=c1\c(=O)[nH]n(-c2c3ccccc3nc3ccccc23)c(=O)\c1=C(/NC(C)CCCN(CC)CC)c1cccc(OC)c1` (stereo not given), for which the GI50 was 1.02 µM in [1]; 0.937 µM in experiment [2]; 1.52 µM in experiment [3]; 1.16 µM in [4]; 0.591 µM in [5]; 2.16 µM in experiment [6]. In addition, the GI50 in experiment [7] is 1.41 µM; in experiment [8], 1.69 µM; in [9], 2.58 µM; in [10] it was 2.08 µM. Also, the TGI in experiment [1] amounted to 2.55 µM; in [2] it was 7.77 µM; in experiment [3], 4.99 µM; in experiment [4], 3.63 µM; in experiment [5], 2.51 µM; in [6], 5.23 µM. The TGI came out at 5.64 µM in [7], 3.3 µM in [8], 7.89 µM in experiment [9] and 5.06 µM in experiment [10].
In the case of `CN1CCN(Cc2ccc(NC(=O)c3[nH]ncc3Nc3ccnc4ccsc34)cc2)CC1`, the GI50 in [1] was 2.01 µM; in [2], 3.63 µM; in experiment [3] it was 2.82 µM; in experiment [4], 2.35 µM; in experiment [5], 2.04 µM; in experiment [6], 2.49 µM. Further, the GI50 in experiment [7] was 2.47 µM; in [8], 11.2 µM; in [9] it was 4.97 µM; in experiment [10], 2.95 µM. Besides, the TGI is 4.76 µM in experiment [1]; 16.4 µM in experiment [2]; 16.7 µM in experiment [3]; 13.4 µM in experiment [4]; 33.8 µM in experiment [5]; 5.85 µM in [6]. Besides, the TGI in [7] was more than 100 µM; in [8] it was 30.2 µM; in experiment [9], 23.1 µM; in experiment [10], 7.18 µM.
Regarding `O=C1C=CC(=O)N1c1ccc2c(c1)Cc1cc(NC(=O)C(F)(F)F)ccc1-2`, the TGI in [1] came out at 23.7 µM; in [2], 34.6 µM; in experiment [3] it was 32.3 µM; in experiment [4], 17.6 µM; in [5], 25.5 µM; in [6], 38.1 µM. The TGI turned out to be 59.6 µM in experiment [7], 30.7 µM in experiment [8], 7.75 µM in experiment [9] and 14.3 µM in [10].
Regarding `N#Cc1c(SCc2ccccc2)nc2[nH]c(=S)[nH]c(=S)c2c1-c1ccco1`, the GI50 in experiment [1] was 37.9 µM; in experiment [2], 67.9 µM; in experiment [3], more than 100 µM; in experiment [4], 15.1 µM; in experiment [5], more than 100 µM; in [6], 40.6 µM. The GI50 in experiment [7] was 24.3 µM; in experiment [8], 21.6 µM; in experiment [9] it was 15.2 µM; in [10], 2.22 µM. Besides, the TGI is more than 100 µM in experiment [1]; more than 100 µM in experiment [2]; more than 100 µM in experiment [3]; 52.8 µM in experiment [4]; more than 100 µM in [5]; more than 100 µM in [6]. The TGI in [7] was more than 100 µM; in experiment [8] it was 46.6 µM; in experiment [9] it was 72.1 µM; in experiment [10], 13.9 µM.
Regarding `c1cncc(-c2cc(-c3cc(-c4cccnc4)n[nH]3)[nH]n2)c1`, the TGI in [1], in experiment [2], in experiment [3], in experiment [4], in [5] and in experiment [6] was more than 100 µM in each case. Further, the TGI in experiment [7], in experiment [8], in experiment [9] and in [10] was more than 100 µM in each case.
In the case of `C/C(=C\c1ccn(-c2ccc(N)cc2C(F)(F)F)n1)[C@@H]1C[C@@H]2O[C@]2(C)CCC[C@H](C)[C@H](O)[C@@H](C)C(=O)C(C)(C)[C@@H](O)CC(=O)O1`, the GI50 in [1] is 0.395 µM; in experiment [2], 0.506 µM; in [3], 0.778 µM; in experiment [4], 6.35 µM; in [5], 0.117 µM; in experiment [6], 0.296 µM. Besides, the GI50 in [7] is 0.356 µM; in [8], 0.488 µM; in experiment [9] it was 0.612 µM; in experiment [10], 0.374 µM. For the same compound, the TGI in experiment [1] is 4.21 µM; in experiment [2], more than 11.1 µM; in [3], more than 11.1 µM; in experiment [4], more than 11.1 µM; in experiment [5], 0.996 µM; in [6] it was 1.07 µM. The TGI in experiment [7], in experiment [8], in [9] and in experiment [10] was more than 11.1 µM in each case.
Take `CC1(C)OC(=O)C=C(O)O1.CC1(C)OC(=O)C=C(O)O1.CCO.Oc1ccc2c(c1)CCC2.[Ti]`: the GI50 in experiment [1], in experiment [2], in experiment [3], in experiment [4], in experiment [5] and in experiment [6] was more than 100 µM in each case. For the same compound, the GI50 in [7], in experiment [8], in experiment [9] and in experiment [10] was more than 100 µM in each case. For the same compound, the TGI in [1], in [2], in [3], in experiment [4], in experiment [5] and in experiment [6] was more than 100 µM in each case. Moreover, the TGI in experiment [7], in [8], in [9] and in experiment [10] was more than 100 µM throughout.
As to `O=C1CN2CCC1C/C2=C\c1ccnc2c(Cl)cccc12` (stereo not given), the GI50 in experiment [1] was more than 100 µM; in [2] it was 61.6 µM; in experiment [3], 34 µM; in experiment [4] it was 90.5 µM; in experiment [5], 42.6 µM; in [6] it was 67.4 µM. Besides, the GI50 is 32.2 µM in [7], more than 100 µM in [8], more than 100 µM in experiment [9] and 29.5 µM in [10]. The TGI in experiment [1], in experiment [2], in experiment [3], in [4], in experiment [5] and in [6] was more than 100 µM each time. In addition, the TGI in experiment [7], in experiment [8], in [9] and in [10] was more than 100 µM each time.
For the compound `NC(=S)N/N=C1\C(=O)N(c2cccc([N+](=O)[O-])c2)C(=O)C1C(=O)Nc1cccc([N+](=O)[O-])c1` (stereo not given), the TGI in experiment [1], in experiment [2], in [3], in [4], in experiment [5] and in [6] was more than 100 µM throughout. Further, the TGI in [7], in [8], in [9] and in [10] was more than 100 µM in each case.
As to `Cc1cc(Nc2ncc(Cl)c(Nc3ccccc3S(=O)(=O)C(C)C)n2)c(OC(C)C)cc1C1CCNCC1`, the GI50 in experiment [1] was 1.27 µM; in [2] it was 1.74 µM and 1.41 µM; in [3], 1.56 µM and 1.12 µM; in [4] it was 1.29 µM and 1.56 µM and 1.7 µM; in [5], 0.237 µM and 0.304 µM; in [6] it was 0.253 µM. Further, the GI50 was 1.39 µM in experiment [7]; 1.49 µM and 1.17 µM in experiment [8]; 1.42 µM and 1.33 µM in [9]; 0.753 µM in experiment [10]. The TGI is 2.64 µM in [1]; 3.59 µM and 4.23 µM in experiment [2]; 3.37 µM and 2.36 µM in [3]; 3.1 µM and 3.95 µM and 4.25 µM in [4]; 1.24 µM and 1.27 µM in experiment [5]; 1.64 µM in experiment [6]. Further, the TGI was 3.82 µM in experiment [7]; 2.84 µM and 2.43 µM in [8]; 2.76 µM and 2.61 µM in experiment [9]; 2.85 µM in experiment [10].
With `CCSc1nc(=S)[nH]c2[nH]ncc12`, the GI50 is 98.3 µM in [1]; more than 100 µM in experiment [2]; 70.3 µM in [3]; 70.6 µM in experiment [4]; more than 100 µM in experiment [5]; more than 100 µM in experiment [6]. Moreover, the GI50 is more than 100 µM in [7], 66.3 µM in [8], 88.9 µM in experiment [9] and more than 100 µM in experiment [10]. The TGI in experiment [1], in experiment [2], in experiment [3], in experiment [4], in experiment [5] and in experiment [6] was more than 100 µM throughout. In addition, the TGI in [7], in experiment [8], in experiment [9] and in [10] was more than 100 µM each time.
`O=C(c1cccs1)c1c(C(F)(F)F)n([O-])c2cc(C(F)(F)F)ccc2[n+]1=O`: the GI50 is 0.184 µM in [1]; 0.263 µM in experiment [2]; 0.29 µM in experiment [3]; 0.647 µM in [4]; 0.193 µM in [5]; less than 0.0236 µM in experiment [6]. Besides, the GI50 in experiment [7] is 0.0303 µM; in experiment [8], 0.462 µM; in experiment [9], 0.678 µM; in [10] it was 0.211 µM. Moreover, the TGI in [1] came to 0.351 µM; in [2], 1.48 µM; in experiment [3], 0.848 µM; in experiment [4] it was 1.71 µM; in [5], 0.419 µM; in experiment [6], 0.135 µM. The TGI in experiment [7] came out at 0.101 µM; in experiment [8], 1.28 µM; in [9] it was 1.85 µM; in experiment [10], 0.59 µM.
Consider `N#C/C(=C\c1ccc(Br)cc1)n1nnc2cc(F)c(F)cc21`, for which the GI50 was 1.37 µM in experiment [1]; 1.69 µM in [2]; 1.74 µM in experiment [3]; 2.17 µM in [4]; 1.85 µM in experiment [5]; 2.07 µM in [6]. Besides, the GI50 is 2 µM in experiment [7], 1.46 µM in [8], 2.16 µM in experiment [9] and 2.01 µM in experiment [10]. In addition, the TGI in [1] came out at 2.77 µM; in [2] it was 3.99 µM; in experiment [3] it was 3.77 µM; in [4], 4.99 µM; in [5], 3.62 µM; in [6], 4.96 µM. Further, the TGI in experiment [7] was more than 100 µM; in experiment [8] it was 3 µM; in experiment [9] it was 5.56 µM; in experiment [10], 4.76 µM.
As to `CN(C)c1ccc2[nH]c(O)c(C=Nc3ccc(S(N)(=O)=O)cc3)c2c1`, the GI50 in experiment [1], in experiment [2], in experiment [3], in experiment [4], in [5] and in experiment [6] was more than 25 µM in each case. For the same compound, the GI50 in [7], in experiment [8], in [9] and in experiment [10] was more than 25 µM each time. For the same compound, the TGI in experiment [1], in experiment [2], in experiment [3], in [4], in experiment [5] and in [6] was more than 25 µM each time. The TGI in [7], in experiment [8], in experiment [9] and in [10] was more than 25 µM throughout.
Take `O=C1C(Br)=C(c2ccccc2)C(c2ccccc2)=C1c1ccccc1`: the TGI in [1] is 3.92 µM; in experiment [2], 4.46 µM; in [3] it was 10.6 µM; in experiment [4], 21.8 µM; in experiment [5], 5.15 µM; in [6], 2.31 µM. Further, the TGI in [7] worked out at 9.93 µM; in [8], 5.73 µM; in experiment [9], 7.12 µM; in [10], 5.22 µM.
Consider `Cc1c(N(C(=O)c2cc(-c3cc(Cl)ccc3C(=O)N3Cc4ccccc4C[C@H]3CN3CCOCC3)n(C)c2C)c2ccc(O)cc2)cc(C#N)n1C`, for which the GI50 was 3.88 µM in experiment [1]; 55.8 µM in [2]; 23.8 µM in [3]; 14.1 µM in [4]; 18.7 µM in [5]; 2.38 µM in [6]. The GI50 in [7] was 10.8 µM; in experiment [8], 20.6 µM; in experiment [9] it was 12.8 µM; in experiment [10] it was 7.32 µM. The TGI in [1] was 17.6 µM; in [2] it was more than 100 µM; in experiment [3] it was more than 100 µM; in experiment [4] it was 44.4 µM; in experiment [5] it was more than 100 µM; in [6], 29.1 µM. Besides, the TGI in [7] was more than 100 µM; in [8] it was more than 100 µM; in experiment [9], 78 µM; in experiment [10], more than 100 µM.
